What was measured:
pediatric UCD patients = assay: Pooled ammonia analyses from short term studies; type: in vivo, human
Procedure: Pooled ammonia analyses from short term studies were also conducted.

[1] = Example 3: plasma PBA, PAA, PAGN PK on first full day of RAVICTI dosing; type: in vivo, human
Procedure: Pharmacokinetic (PK) Evaluable Population: all subjects from the safety population with individual concentration-time profiles that allow computation of meaningful PK parameter values. Measurements were taken at hour 0, between 4 and 6 hours, 8 hours, and between 12 and 24 hours after the first dose of the day on day 1 for stable subjects and on day 2 for subjects in HAC.
PK Evaluable Population: all subjects from the safety population with individual concentration-time profiles that allow computation of meaningful PK parameter values. Measurements were taken at hour 0, between 4 and 6 hours, 8 hours, and between 12 and 24 hours after the first dose of the day on day 1 for stable subjects and on day 2 for subjects in HAC.

[2] = aged 0 to 2 months, 16 subjects
[3] = aged 2 months and up to 2 years, 10 subjects

## O=C(CCCc1ccccc1)OCC(COC(=O)CCCc1ccccc1)OC(=O)CCCc1ccccc1 [RAVICTI, benzenebutanoic acid, 1′,1″-(1,2,3-propanetriyl) ester]
Pediatric UCD patients
  abnormal ammonia values: 15%
[1]; aged 0 to 2 months, 7 subjects
  Plasma PBA mean Cmin: 4.8 (±4.2) μg/mL
[1]; aged 0 to 2 months, 10 subjects
  mean plasma PAA Cmin: 98.98 (±122.07) μg/mL
[1]; aged 0 to 2 months, 13 subjects
  mean plasma PAGN Cmin: 69.39 (±54.03) μg/mL
[1]; [2]
  Plasma PBA mean AUC[0-last]: 374.53 (±390.48) μg*hr/mL
  Plasma PBA mean Cmax: 46.2 (±49.8) μg/mL
  Plasma PBA mean Tmax: 9.39 (±7.41) hr
  mean plasma PAA AUC(0-last): 1321.18 (±1220.52) μg*hr/mL
  mean plasma PAA Cmax: 115.3 (±102.0) μg/mL
  mean plasma PAA Tmax: 9.85 (±9.26) hr
  mean plasma PAGN AUC(0-last): 1384.12 (±1141.03) μg*hr/mL
  mean plasma PAGN Cmax: 102.1 (±48.6) μg/mL
  mean plasma PAGN Tmax: 11.72 (±8.24) hr
[1]; [3]
  Plasma PBA mean AUC[0-last]: 280.936 (±293.553) μg*hr/mL
  Plasma PBA mean Cmax: 42.11 (±36.715) μg/mL
  Plasma PBA mean Cmin: 1.697 (±2.254) μg/mL
  Plasma PBA mean Tmax: 8.383 (±4.564) hr
  mean plasma PAA AUC(0-last): 246.126 (±238.547) μg*hr/mL
  mean plasma PAA Cmax: 36.52 (±31.784) μg/mL
  mean plasma PAA Cmin: 4.197 (±6.434) μg/mL
  mean plasma PAA Tmax: 7.422 (±7.351) hr
  mean plasma PAGN AUC(0-last): 583.835 (±285.241) μg*hr/mL
  mean plasma PAGN Cmax: 62.45 (±27.281) μg/mL
  mean plasma PAGN Cmin: 20.62 (±14.529) μg/mL
  mean plasma PAGN Tmax: 6.573 (±7.181) hr
